Data on 9 compounds can be found in PubChem BioAssay (NCI).

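How tested: cells in 96-well plates exposed to compound for 48 hours at five concentrations. TGI is the concentration that stops growth completely.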

Among the test systems are 786-0 renal; PC-3 prostate; SNB-19 CNS; OVCAR-4 ovarian; RXF 393 renal; SK-MEL-5 melanoma; UACC-62 melanoma; HOP-92 NSCLC; MDA-N; SK-MEL-28 melanoma; EKVX NSCLC; HT29 colon; NCI/ADR-RES ovarian; HS 578T breast; DU-145 prostate; A498 renal; OVCAR-5 ovarian; NCI-H226 lung.
Common to all, as to assay: NCI-60 cell line screen, 48 h

On to `CC(=O)C(C(=O)c1ccc(C)cc1)[C@@H]1OC(C)(C)O[C@@H]1[C@H]1COC(C)(C)O1` (stereo not given in full), for which the TGI in the assay on 786-0 renal is 21.5 µM; with PC-3 prostate it was over 31.9 µM; with SNB-19 CNS it was over 48.3 µM; in the assay with OVCAR-4 ovarian, over 26.3 µM; in the assay on RXF 393 renal, 36.4 µM; in the assay with SK-MEL-5 melanoma it was 29.2 µM. Besides, the TGI with UACC-62 melanoma is 25.8 µM; in the assay on HOP-92 NSCLC it was over 100 µM; in the assay on MDA-N it was 54.3 µM; in the assay on SK-MEL-28 melanoma it was over 77.7 µM; in the assay with EKVX NSCLC, over 100 µM; in the assay on HT29 colon, 20 µM. In addition, the TGI in the assay on NCI/ADR-RES ovarian is over 70.9 µM; with HS 578T breast, over 59.8 µM; in the assay with DU-145 prostate it was 29.8 µM; in the assay on A498 renal it was over 75.7 µM; in the assay with OVCAR-5 ovarian, over 100 µM.
For the compound `CCC(C)C(=O)OC1C(=O)OC2CC3C(C)=CC(=O)C(O)C3(C)C3C4(O)OCC23C1C(C)C4O` (stereo not given), the TGI with PC-3 prostate worked out at 0.481 µM; in the assay with OVCAR-4 ovarian, 0.262 µM; in the assay on SK-MEL-5 melanoma it was 0.025 µM; in the assay on UACC-62 melanoma, 0.188 µM; with HOP-92 NSCLC, 0.205 µM; in the assay on MDA-N it was 0.232 µM. The TGI was under 0.031 µM in the assay with NCI-H226 lung; 0.106 µM in the assay with SK-MEL-28 melanoma; 6.47 µM in the assay with NCI/ADR-RES ovarian; 0.275 µM in the assay on HS 578T breast; 0.0977 µM in the assay on DU-145 prostate; 3.3 µM in the assay with A498 renal.
In the case of `CC(C)(C)c1cc(S(=O)(=O)O)c2oc(-c3ccccc3)cc(=O)c2c1`, the TGI in the assay on 786-0 renal, with PC-3 prostate, with SNB-19 CNS, with RXF 393 renal, in the assay on SK-MEL-5 melanoma and in the assay with MDA-N was over 100 µM throughout. In addition, the TGI in the assay with NCI-H226 lung, with SK-MEL-28 melanoma, with EKVX NSCLC, with HT29 colon, in the assay with NCI/ADR-RES ovarian and in the assay with HS 578T breast was over 100 µM each time. Further, in the assay with DU-145 prostate, the TGI was over 100 µM.
`CSC1=N/C(=C\c2ccc(C)cc2)C(=O)N1`: the TGI with 786-0 renal was over 100 µM; in the assay on PC-3 prostate, over 100 µM; with SNB-19 CNS, over 100 µM; with OVCAR-4 ovarian, over 100 µM; in the assay with RXF 393 renal, 96.2 µM; in the assay on UACC-62 melanoma, over 100 µM. In addition, the TGI in the assay on HOP-92 NSCLC, with MDA-N, in the assay on NCI-H226 lung, with SK-MEL-28 melanoma, in the assay with EKVX NSCLC and with HT29 colon was over 100 µM throughout. Also, the TGI with NCI/ADR-RES ovarian, in the assay with HS 578T breast, with DU-145 prostate and with OVCAR-5 ovarian was over 100 µM throughout.
For the compound `CC(=O)NC1C(OCc2ccccc2)OC(CO)C(O)C1OC(C)C(=O)NC(C(=O)NC(CCC(=O)NCCCC(=O)Nc1ccc2c(c1)CN1C(=O)c3ccccc3C1=N2)C(N)=O)C(C)C` (stereo not given), the TGI in the assay on 786-0 renal, with PC-3 prostate, with SNB-19 CNS, in the assay on OVCAR-4 ovarian, in the assay on RXF 393 renal and in the assay with SK-MEL-5 melanoma was over 100 µM throughout. Further, the TGI in the assay with UACC-62 melanoma, with HOP-92 NSCLC, with MDA-N, with SK-MEL-28 melanoma, in the assay on EKVX NSCLC and with HT29 colon was over 100 µM in each case. Further, the TGI with NCI/ADR-RES ovarian, with HS 578T breast, in the assay with DU-145 prostate, with A498 renal and in the assay with OVCAR-5 ovarian was over 100 µM throughout.
Consider `Cc1cc(S(=O)(=O)Nc2nc(N)nc(N3N=CCC3C)n2)c(SCC(=O)O)cc1Cl` (stereo not given), for which the TGI in the assay with 786-0 renal, in the assay on PC-3 prostate, with SNB-19 CNS, in the assay with OVCAR-4 ovarian, in the assay on RXF 393 renal and in the assay on SK-MEL-5 melanoma was over 10 µM each time. The TGI in the assay on UACC-62 melanoma, with MDA-N, in the assay with NCI-H226 lung, in the assay with SK-MEL-28 melanoma, in the assay with EKVX NSCLC and in the assay on HT29 colon was over 10 µM throughout. In addition, the TGI in the assay on NCI/ADR-RES ovarian, in the assay on HS 578T breast, with DU-145 prostate, in the assay with A498 renal and with OVCAR-5 ovarian was over 10 µM each time.
On to `NC(CSS(=O)(=O)O)=NC1CC2CCC1C2` (stereo not given), for which the TGI in the assay on 786-0 renal, in the assay with PC-3 prostate, in the assay with SNB-19 CNS, in the assay on OVCAR-4 ovarian, with RXF 393 renal and in the assay with SK-MEL-5 melanoma was over 100 µM in each case. Moreover, the TGI in the assay on UACC-62 melanoma, in the assay with HOP-92 NSCLC, in the assay on MDA-N, in the assay on NCI-H226 lung, with SK-MEL-28 melanoma and in the assay on NCI/ADR-RES ovarian was over 100 µM throughout. Besides, the TGI with HS 578T breast, in the assay with DU-145 prostate and with A498 renal was over 100 µM each time.
Take `COc1cc2c(cc1OCCCNC(=O)c1cc3ccccc3[nH]1)N=C[C@@H]1CCCN1C2=O`: the TGI in the assay on 786-0 renal was 41.4 µM; in the assay on PC-3 prostate it was 5.79 µM; in the assay with SNB-19 CNS, over 38.3 µM; in the assay on OVCAR-4 ovarian, 11.7 µM; in the assay on SK-MEL-5 melanoma, 0.297 µM; in the assay with UACC-62 melanoma, 0.705 µM. Moreover, the TGI in the assay on HOP-92 NSCLC was over 100 µM; in the assay with MDA-N it was 1.87 µM; in the assay on NCI-H226 lung it was 2.96 µM; with SK-MEL-28 melanoma it was 1.65 µM; with EKVX NSCLC, 5.68 µM; in the assay on HT29 colon it was over 34.3 µM. Moreover, the TGI in the assay with NCI/ADR-RES ovarian was 9.99 µM; in the assay with HS 578T breast it was 0.562 µM; with DU-145 prostate it was over 34.3 µM; in the assay with A498 renal it was 0.257 µM; in the assay with OVCAR-5 ovarian, over 33.3 µM.
For `Cc1c(N=Nc2ccccc2)c(-c2ccccc2)n(C2OC(CO)C(O)C(O)C2O)c(=S)c1C#N` (stereo not given), the TGI in the assay on 786-0 renal was 18.8 µM; in the assay with PC-3 prostate, 15.6 µM; with SNB-19 CNS it was 27.8 µM; in the assay with OVCAR-4 ovarian, 26.1 µM; with RXF 393 renal it was 10.3 µM; with UACC-62 melanoma it was 13 µM. In addition, the TGI in the assay with MDA-N stood at 20.1 µM; with NCI-H226 lung, 28.5 µM; in the assay on SK-MEL-28 melanoma, 19.6 µM; with EKVX NSCLC it was 42.5 µM; with HT29 colon it was 29.7 µM; in the assay on NCI/ADR-RES ovarian, 46.6 µM. Moreover, the TGI with HS 578T breast was over 100 µM; in the assay on DU-145 prostate, 41.7 µM; with A498 renal, 32.5 µM; with OVCAR-5 ovarian, 28.9 µM.
